Values quoted from earlier work as cited in patent US8685449B2, “Pharmaceutical composition with anti-obesity activity comprising a premixture of pure orlistat and preparation process” (Laboratorios Bago S.A., priority 2010, dated 2014).

Settings: particularly in a wet environment and at a temperature above 35° C., and inclusive in a dry environment

SMILES: CCCCCCCCCCC[C@@H](C[C@@H]1OC(=O)[C@H]1CCCCCC)OC(=O)[C@H](CC(C)C)NC=O [orlistat, (−) tetrahydrolipstatin]
- stability (hydrolisis and thermal degradation): susceptible to hydrolisis and thermal degradation
